Test results taken from paper PMC11801715, “Activating PKC-ε induces HIV expression with improved tolerability” (PLOS Pathogens, 2025).
Where “and” joins values, the source holds several entries; their conditions need not be identical. Equal entries are not always repeated. Where two headings read alike, the source gives them in different places.

Assays:
[1] = test system: PBMCs; assay: Cytokine induction in vitro in PBMC culture supernatants; format: cell-based, human; conditions: 24 hours
Protocol: Culture supernatants were analyzed for induction of several cytokines as shown in S3 Table, using a 10-plex MSD (Meso Scale Discovery) assay following manufacturer’s instructions. MSD Workbench 4.0 software was used for data analysis and 4-parameter logistic curve fit model was utilized to determine values of experimental samples from standard curves. Values for each cytokine (pg/mL) for a given concentration was calculated as the geometric mean of all triplicate values combined from all 5 donors.

[2] = target: PKC-η (Homo sapiens, UniProt P24723); assay: PKC isoform translocation in A549-tGFP cells; format: cell-based; set-up: host or cells: A549; conditions: for EC50: A549-tGFP cells, 60 minutes; for ε selectivity, PKC-η: EC50 of PKC-η divided by EC50 of PKC-ε
Chain of PKC-η (P24723 whole entry, canonical isoform): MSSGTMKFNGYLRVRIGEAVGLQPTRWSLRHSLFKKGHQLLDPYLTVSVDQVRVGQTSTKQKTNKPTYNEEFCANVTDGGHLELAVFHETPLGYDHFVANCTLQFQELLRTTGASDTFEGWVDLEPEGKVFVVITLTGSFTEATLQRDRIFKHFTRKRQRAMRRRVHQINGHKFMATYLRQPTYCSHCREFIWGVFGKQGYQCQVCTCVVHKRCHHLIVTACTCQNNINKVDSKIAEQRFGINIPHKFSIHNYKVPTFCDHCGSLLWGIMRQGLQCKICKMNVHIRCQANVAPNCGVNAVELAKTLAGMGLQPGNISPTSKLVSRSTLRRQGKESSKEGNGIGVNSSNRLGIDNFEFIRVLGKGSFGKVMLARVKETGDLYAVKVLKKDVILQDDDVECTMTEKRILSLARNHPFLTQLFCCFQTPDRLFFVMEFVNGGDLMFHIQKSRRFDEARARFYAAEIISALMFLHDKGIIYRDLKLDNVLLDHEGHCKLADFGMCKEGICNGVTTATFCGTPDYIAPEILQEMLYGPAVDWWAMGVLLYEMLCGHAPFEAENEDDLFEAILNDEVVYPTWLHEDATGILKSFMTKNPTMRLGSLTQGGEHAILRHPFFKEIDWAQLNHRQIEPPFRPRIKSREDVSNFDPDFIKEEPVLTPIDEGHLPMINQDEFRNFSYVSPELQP
Protocol: (§1) A description of this effort is reported elsewhere.
(§2) Cellular translocation of PKC isoforms upon activation was determined in 8 A549 cell lines, each expressing a single PKC isoform fused to tGFP (PhenoVista Biosciences). Cells were plated in 384-well plates (80 μL/well) at 10^5 cells/mL in RPMI with 10% FBS and rested overnight. PKC agonist(s) were serially diluted at 1:3 steps in DMSO and added to the cells. After 60 minutes in an incubator at 37 °C, 5% CO2, cells were stained with Hoechst-33342 and fixed with 2% paraformaldehyde for 30 minutes at 4 °C. Cells were then stained with wheat germ agglutinin conjugated to AlexaFluor647 (WGA-647) for 10 minutes at 4 °C, washed to remove excess dye and imaged with Cellomics Array Scan (Thermo Fisher) at room temperature (RT). Images were analyzed using Cellomics automated image analysis algorithm. Plasma membrane translocation was quantified using the ratio between the average fluorescence in the areas at the cell edge defined by WGA-647 and the cytoplasm region.

[3] = target: PKC-δ (Homo sapiens, UniProt Q05655); assay: PKC isoform translocation in A549-tGFP cells; format: cell-based; set-up: host or cells: A549; conditions: for EC50: A549-tGFP cells, 60 minutes, read-out: EC50 for PKC-δ translocation; for ε selectivity, PKC-δ: EC50 of PKC-δ divided by EC50 of PKC-ε
Chain of PKC-δ (Q05655 whole entry, canonical isoform): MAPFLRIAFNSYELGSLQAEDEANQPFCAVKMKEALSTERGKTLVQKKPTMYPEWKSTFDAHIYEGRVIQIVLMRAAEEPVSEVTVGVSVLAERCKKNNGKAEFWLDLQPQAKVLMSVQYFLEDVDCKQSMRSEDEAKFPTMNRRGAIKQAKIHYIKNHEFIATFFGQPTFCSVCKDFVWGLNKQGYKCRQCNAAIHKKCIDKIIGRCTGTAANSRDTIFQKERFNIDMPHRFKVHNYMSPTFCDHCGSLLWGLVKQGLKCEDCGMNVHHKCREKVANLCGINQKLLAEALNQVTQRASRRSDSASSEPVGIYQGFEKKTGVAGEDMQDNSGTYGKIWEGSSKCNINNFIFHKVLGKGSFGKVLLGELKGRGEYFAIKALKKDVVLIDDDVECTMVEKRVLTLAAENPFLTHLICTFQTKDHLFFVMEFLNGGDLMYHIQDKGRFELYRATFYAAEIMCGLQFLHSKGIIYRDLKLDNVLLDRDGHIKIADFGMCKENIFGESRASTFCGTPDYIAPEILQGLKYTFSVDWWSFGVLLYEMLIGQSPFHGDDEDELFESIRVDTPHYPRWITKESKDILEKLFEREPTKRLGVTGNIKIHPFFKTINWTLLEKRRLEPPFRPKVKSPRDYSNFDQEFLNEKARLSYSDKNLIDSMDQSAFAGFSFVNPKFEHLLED
Protocol: as §1, §2

[4] = target: PKC-θ (Homo sapiens, UniProt Q04759); assay: PKC isoform translocation in A549-tGFP cells; format: cell-based; set-up: host or cells: A549; conditions: for EC50: A549-tGFP cells, 60 minutes; for ε selectivity, PKC-θ: EC50 of PKC-θ divided by EC50 of PKC-ε
Chain of PKC-θ (Q04759 whole entry, canonical isoform): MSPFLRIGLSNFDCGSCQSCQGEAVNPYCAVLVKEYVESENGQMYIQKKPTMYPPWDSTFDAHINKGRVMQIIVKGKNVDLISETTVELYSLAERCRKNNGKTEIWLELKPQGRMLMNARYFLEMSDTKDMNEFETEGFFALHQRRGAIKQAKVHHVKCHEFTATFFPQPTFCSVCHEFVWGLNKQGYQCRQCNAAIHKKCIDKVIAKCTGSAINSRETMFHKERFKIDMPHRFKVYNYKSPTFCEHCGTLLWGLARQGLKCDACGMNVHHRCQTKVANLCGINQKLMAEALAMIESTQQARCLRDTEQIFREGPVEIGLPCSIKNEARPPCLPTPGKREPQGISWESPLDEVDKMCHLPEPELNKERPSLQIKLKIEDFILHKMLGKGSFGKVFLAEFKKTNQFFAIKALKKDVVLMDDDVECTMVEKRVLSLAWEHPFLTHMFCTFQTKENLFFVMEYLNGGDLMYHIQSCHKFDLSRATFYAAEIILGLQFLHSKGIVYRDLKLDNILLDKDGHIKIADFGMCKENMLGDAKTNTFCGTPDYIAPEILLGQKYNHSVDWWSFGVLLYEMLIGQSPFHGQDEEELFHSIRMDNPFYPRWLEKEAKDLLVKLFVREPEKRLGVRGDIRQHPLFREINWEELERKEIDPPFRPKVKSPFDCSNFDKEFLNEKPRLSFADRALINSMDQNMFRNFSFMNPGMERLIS
Protocol: as §1, §2

[5] = test system: Sprague Dawley rats; assay: In vivo rat study: tolerability, clinical pathology, histopathology
Protocol: (§3) Wild-type male Sprague Dawley (Hsd: Sprague Dawley SD) rats (8–15 weeks old) were sourced from the Covance stock colony for conduct of in vivo studies at Covance Laboratories Inc. (Madison, Wisconsin, USA). Rats were administered a single dose of vehicle control (n = 3), or 0.1, 0.3, 1, or 3 mg/kg C-232A (n = 6), or 10 mg/kg C-233 by intravenous infusion over 30 minutes. Blood samples were collected through 24 hours postdose. Samples for PK measurement of C-232A concentration were processed to plasma and shipped to Gilead Sciences (Foster City, California, USA). Samples were analyzed at Covance Laboratories for hematology and clinical chemistry panels. At unscheduled necropsy (3 mg/kg C-232A), tissues were preserved in 10% neutral-buffered formalin, embedded in paraffin, mounted on slides, and stained with hematoxylin and eosin. Tissues were then evaluated independently (Experimental Pathology Laboratories, Inc).

[6] = test system: EGR1 and CD69 mRNA in whole blood; assay: EGR1 and CD69 mRNA levels in rat blood (QuantiGene); format: in vivo
Protocol: EGR1 and CD69 mRNA expression levels were measured in whole blood, processed using Affymetrix QuantiGene Sample Processing Kit (Thermo Fisher Scientific, catalog QS0111). Quantigene multiplex analysis was performed on 1:3 diluted blood using probes specific for rat EGR1 (Thermo Fisher Scientific, catalog nm_012551) and CD69 (catalog nm_134327), as per the kit’s instructions (Thermo Fisher Scientific, catalog QP-1014) and normalized to PPIB (catalog nm_022536) and β-actin (catalog nm_031144).

[7] = test system: latent HIV in total CD4+ T cells; assay: microbe, parasite or virus in culture; format: cell-based, HIV-1; conditions: for EC50: Human immunodeficiency virus 1, CD4+ T
Protocol: Peripheral blood mononuclear cells and CD4^+ T cells used for evaluating PKC agonist and inhibitor molecules were isolated from leukopaks of selected participants as described previously. Isolated CD4^+ T cells (5×10^6 cells/well) were added to 24-well tissue culture plates in 2.5 mL of RPMI medium containing 100 nM each of elvitegravir and efavirenz. Cells were stimulated with DMSO (vehicle control) or the indicated concentrations of PKC agonist molecules. Cells were pretreated with PKC isoform inhibitors (Selleck Chemicals) for 1 hour before addition of PKC agonist at indicated concentrations and maintained at 37 °C, 5% CO2 for 3 days. Cell supernatants from each well were analyzed using the Cobas […] system for quantification of HIV-1 RNA using the HIV-1 test v2.0 kit (Roche Diagnostics).

[8] = Plasma PK in rats; format: in vivo, rat; conditions: slow IV infusion
Protocol: as §3
Rat and rhesus plasma samples (20 µL aliquot of each) were treated with 100 µL acetonitrile containing a generic internal small-molecule standard. […] The descriptive PK parameters were analyzed using noncompartmental analysis with Phoenix WinNonlin software (version 8.2, Certara USA, Inc.). The area under the plasma concentration–time curve (AUClast) values were calculated using the linear trapezoid method.

[9] = test system: CD69 on CD4+ T cells; assay: CD4+ T-cell activation flow cytometry (CD69); format: cell-based; conditions: Homo sapiens; CD4+ T cells from ART-suppressed people with HIV; read-out: EC50, activation of CD69 expression
Protocol: Sixteen hours post treatment with PKC agonists, cellular activation of 100,000 CD4^+ T cells, taken from the above ex vivo HIV activation cultures, was assessed using flow cytometry. Cell surface expression of CD69 was measured on CD4^+ T cells using anti-human CD3 (UCHT1), CD4 (SK3) and CD69 (FN50) antibodies and standard flow staining methods. Stained cells were acquired on the Becton Dickinson (BD) LSR Fortessa II flow cytometer and results were analyzed using FlowJo software.

| SMILES | GM-CSF in PBMC culture supernatant ([1]; 156 nM) | IFN-γ in PBMC culture supernatant ([1]; 156 nM) | IL-1b in PBMC culture supernatant ([1]; 156 nM) | IL-2 in PBMC culture supernatant ([1]; 156 nM) | IL-4 in PBMC culture supernatant ([1]; 156 nM) | IL-6 in PBMC culture supernatant ([1]; 156 nM) | IL-8 in PBMC culture supernatant ([1]; 156 nM) | IL-10 in PBMC culture supernatant ([1]; 156 nM) | IL-12p70 in PBMC culture supernatant ([1]; 156 nM) | TNF-α in PBMC culture supernatant ([1]; 156 nM) | GM-CSF in PBMC culture supernatant ([1]; 625 nM) | IFN-γ in PBMC culture supernatant ([1]; 625 nM) | IL-1b in PBMC culture supernatant ([1]; 625 nM) | IL-2 in PBMC culture supernatant ([1]; 625 nM) | IL-4 in PBMC culture supernatant ([1]; 625 nM) | IL-6 in PBMC culture supernatant ([1]; 625 nM) | IL-8 in PBMC culture supernatant ([1]; 625 nM) | IL-10 in PBMC culture supernatant ([1]; 625 nM) | IL-12p70 in PBMC culture supernatant ([1]; 625 nM) | TNF-α in PBMC culture supernatant ([1]; 625 nM) | also measured |
| --- | --- | --- | --- | --- | --- | --- | --- | --- | --- | --- | --- | --- | --- | --- | --- | --- | --- | --- | --- | --- | --- |
| Cc1ccc(C#Cc2ccc3oc(CC(C)(C)C(=O)OCC4(CO)CC(=CCC(CC(C)C)CC(C)C)C(=O)O4)cc3c2)cc1 (stereo not drawn) [C-232A] | 40 pg/mL | 202 pg/mL | 72 pg/mL | 14 pg/mL | 0.4 pg/mL | 84 pg/mL | 43,224 pg/mL | 4.9 pg/mL | 7 pg/mL | 883 pg/mL | 71 pg/mL | 172 pg/mL | 125 pg/mL | 17 pg/mL | 0.6 pg/mL | 100 pg/mL | 45,964 pg/mL | 3.6 pg/mL | 9 pg/mL | 1424 pg/mL | EC50 [2]: 100 nM; ε selectivity, PKC-η [2]: 2; EC50 [3]: 714 nM and 710 nM; ε selectivity, PKC-δ [3]: 12; EC50 [4]: 176 nM and 180 nM; ε selectivity, PKC-θ [4]: 3; rats euthanized due to severe clinical signs ([5]; 1 mg/kg, single IV infusion): 1 of the 6 and 1 of 6; histopathology ([5]; 3 mg/kg): thrombi associated with congestion and hemorrhage in the lung and brain; outcome (moribund condition) ([5]; 3 mg/kg, single IV infusion, n = 6): euthanized within 6 hours postdose; tolerability ([5]; 0.1 and 0.3 mg/kg, single IV infusion, 6 rats): well tolerated; circulating platelet counts ([5]; higher doses): < 100,000 platelets/µL; mean platelet volume ([5]; higher doses): > 15 fL; EGR1 and CD69 transcription ([6]; 0.1-3 mg/kg): dose-dependent increases in EGR1 and CD69 transcription; EC50 ([7]; read-out: EC50, activation of HIV expression): 500 nM; PK plasma profile ([8]; 0.1, 0.3, 1, and 3 mg/kg): dose-dependent C-232A PK plasma profiles; EC50 [9]: 57 nM |
| Cc1ccc(C#Cc2ccc(C(=O)OCC3(CO)Cc4c(-c5ccccc5)ccnc4O3)cc2)cc1 (stereo not drawn) [C-233] | 14 pg/mL | 215 pg/mL | 42 pg/mL | 10 pg/mL | 0.3 pg/mL | 40 pg/mL | 36,739 pg/mL | 4 pg/mL | 5 pg/mL | 308 pg/mL | 30 pg/mL | 135 pg/mL | 60 pg/mL | 14 pg/mL | 0.6 pg/mL | 44 pg/mL | 45,465 pg/mL | 4 pg/mL | 9 pg/mL | 834 pg/mL | EC50 [2]: 1100 nM; ε selectivity, PKC-η [2]: 5; EC50 [3]: 47000 nM; ε selectivity, PKC-δ [3]: 196; EC50 [4]: 1500 nM; ε selectivity, PKC-θ [4]: 6; platelets and mean platelet volume ([5]; 10 mg/kg): without any significant depletion of platelets or increased mean platelet volume; adverse events ([5]; 10 mg/kg, single IV infusion): no adverse events were observed; EGR1 and CD69 mRNA induction versus C-232A (1 mg/kg) ([6]; 10 mg/kg): higher induction of EGR1 and CD69 mRNA levels; HIV RNA Fold over DMSO Geo.mean ([7]; 1.1 μM (Fig 10C)): 9.2 fold and 9 fold; EC50 ([7]; 72 h, read-out: HIV RNA EC50): 296 nM; PK profile ([8]; 1, 3, and 10 mg/kg, n = 3 male rats/group): Dose-dependent increases in the PK profile; EC50 [9]: 99 nM |
